Laboratory results as given in the supplement of paper PMC11061612.

Assays:
[1] = system: OC-314 (Ovarian Carcinoma); assay: combination Emax (second highest fraction inhibited in the dose matrix, 72 h); higher = more inhibition; extreme values may be limits of the assay
Method in brief: (§1)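 After 24 hours at 37°C and 5% CO2 in 1536-well plates, cells in DMEM/F12 or RPMI plus 10% FBS received two-drug dose matrices for 72 hours. Viability came from CellTiter-Glo 2.0 luminescence and was scaled as inhibition, anchored at 0 by vehicle wells and at 1 by blank wells. Combination Emax is taken as the second-highest inhibition in the matrix, and Bliss excess as the observed combination effect less EA + EB − EA·EB, with EA and EB the single-agent effects.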

COLO-829 (Melanoma) [2] = assay: as above
Method in brief: as §1

[3] = system: SK-OV-3 (Ovarian Carcinoma); assay: as above
Method in brief: as §1

[4] = system: SUP-T1 (T-Lymphoblastic Leukemia); assay: as above
Method in brief: as §1

[5] = system: KARPAS-231 (B-Cell Non-Hodgkin's Lymphoma); assay: as above
Method in brief: as §1

[6] = system: SU-DHL-6 (B-Cell Non-Hodgkin's Lymphoma); assay: as above
Method in brief: as §1

NCI-H2461 (Mesothelioma) = assay: as above
Method in brief: as §1

[7] = system: CAL-51 (Breast Carcinoma); assay: as above
Method in brief: as §1

[8] = system: RT-112 (Bladder Carcinoma); assay: as above
Method in brief: as §1

[9] = system: Hs-633T (Other Solid Carcinomas); assay: as above
Method in brief: as §1

[10] = system: LoVo (Colorectal Carcinoma); assay: as above
Method in brief: as §1

[11] = system: HCC-15 (Squamous Cell Lung Carcinoma); assay: as above
Method in brief: as §1

[12] = system: TE-4 (Esophageal Squamous Cell Carcinoma); assay: as above
Method in brief: as §1

[13] = system: NCI-H69 (Small Cell Lung Carcinoma); assay: as above
Method in brief: as §1

SH-4 (Melanoma) [14] = assay: as above
Method in brief: as §1

[15] = system: HDLM-2 (Hodgkin's Lymphoma); assay: as above
Method in brief: as §1

COLO-829 (Melanoma) [16] = assay: Bliss excess, mean over the matrix (fraction); higher = more synergy
Method in brief: as §1

[17] = system: CTB-1 (B-Cell Non-Hodgkin's Lymphoma); assay: as above
Method in brief: as §1

[18] = system: RPMI-6666 (Non-Cancerous); assay: as above
Method in brief: as §1

SH-4 (Melanoma) [19] = assay: as above
Method in brief: as §1
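For Bliss excess, mean over the matrix in this document: after 72 h of two-drug dosing.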

Row | Compound | combination Emax [1] | combination Emax (COLO-829 (Melanoma) [2]) | combination Emax [3] | combination Emax [4] | combination Emax [5] | combination Emax [6] | combination Emax (NCI-H2461 (Mesothelioma)) | combination Emax [7] | combination Emax [8] | combination Emax [9] | combination Emax [10] | combination Emax [11] | combination Emax [12] | combination Emax [13] | combination Emax (SH-4 (Melanoma) [14]) | combination Emax [15] | Bliss excess (COLO-829 (Melanoma) [16]) | Bliss excess [17] | Bliss excess [18] | Bliss excess (SH-4 (Melanoma) [19])
1 | COc1cccc(OCCCN)c1-c1cc(Nc2cnc(C#N)cn2)n[nH]1 [Prexasertib] + CN(C)CCCOc1ccc(-c2ccc3ncc4c(c3c2)n(C2CCOCC2)c(=O)n4C)cn1 [AZD0156] (first compound max 1 µM, 7x7, partner max 1 µM) | 0.962 | 0.385 | 0.853 | 0.821 | 0.979 | 0.642 | 0.745 | 0.946 | 0.975 | 0.908 | 0.896 | 0.187 | 0.65 | 0.582 | 0.807 | 0.512 | 0.0127 | 0.0109 | 0.0064 | 0.0424
2 | CCN(CCO)CCCOc1ccc2c(Nc3cc(CC(=O)Nc4cccc(F)c4)[nH]n3)ncnc2c1 [AZD2811] + O=C(c1cc(Cc2n[nH]c(=O)c3ccccc23)ccc1F)N1CCN(C(=O)C2CC2)CC1 [Olaparib] (first compound max 1 µM, 7x7, partner max 10 µM) | 0.487 | 0.254 | 0.226 | 0.528 | 0.576 | 0.365 | 0.278 | 0.314 | 0.424 | 0.441 | 0.354 | 0.755 | 0.145 | 0.572 | 0.265 | 0.258 | 0.0233 | -0.0508 | -0.0615 | -0.0234
3 | CCN(CCO)CCCOc1ccc2c(Nc3cc(CC(=O)Nc4cccc(F)c4)[nH]n3)ncnc2c1 [AZD2811] + C=CCn1c(=O)c2cnc(Nc3ccc(N4CCN(C)CC4)cc3)nc2n1-c1cccc(C(C)(C)O)n1 [AZD1775] (first compound max 1 µM, partner max 1 µM) | 0.839 | 0.274 | 0.434 | 0.839 | 0.993 | 0.734 | 0.638 | 0.815 | 0.531 | 0.649 | 0.835 | 0.723 | 0.171 | 0.602 | 0.456 | 0.746 | 0.0009 | 0.0011 | -0.0271 | -0.0484
4 | CN(CCO)CC[C@H](CSc1ccccc1)Nc1ccc(S(=O)(=O)NC(=O)c2ccc(N3CCC([C@@H](O)c4ccccc4-c4ccc(Cl)cc4)CC3)cc2)cc1S(=O)(=O)C(F)(F)F [AZD4320] + C1CN(CCC1(C(=O)N[C@@H](CCO)C2=CC=C(C=C2)Cl)N)C3=NC=NC4=C3C=CN4 [Capivasertib] (first compound max 1 µM, 7x7, partner max 3 µM) | 0.261 | 0.118 | 0.369 | 0.505 | 1 | 1 | 0.429 | 0.504 | 0.147 | 0.298 | 0.633 | 0.923 | 0.511 | 0.892 | 0.129 | 0.841 | -0.0988 | -0.0277 | 0.0083 | -0.0462
5 | Cc1c2c(nn1C)CSCc1cc(n(C)n1)CSc1cc(c3ccccc3c1)OCCCc1c(C(=O)O)n(C)c3c-2c(Cl)ccc13 [AZD5991] + CC1(C)CCC(CN2CCN(c3ccc(C(=O)NS(=O)(=O)c4ccc(NCC5CCOCC5)c([N+](=O)[O-])c4)c(Oc4cnc5[nH]ccc5c4)c3)CC2)=C(c2ccc(Cl)cc2)C1 [Venetoclax] (first compound max 1 µM, 7x7, partner max 1 µM) | 0.147 | 0.213 | 0.219 | 0.304 | 1 | 1 | 0.181 | 0.521 | 0.99 | 0.231 | 0.147 | 0.323 | 0.261 | 0.522 | 0.642 | 1 | -0.0122 | -0.0491 | 0.233 | 0.0457
6 | CN(CCO)CC[C@H](CSc1ccccc1)Nc1ccc(S(=O)(=O)NC(=O)c2ccc(N3CCC([C@@H](O)c4ccccc4-c4ccc(Cl)cc4)CC3)cc2)cc1S(=O)(=O)C(F)(F)F [AZD4320] + Cc1cc2ncnn2cc1Nc1ncc2c(n1)n(C1CCOCC1)c(=O)n2C [AZD7648] (first compound max 1 µM, 7x7, partner max 10 µM) | 0.22 | 0.0921 | 0.305 | 0.416 | 1 | 0.97 | 0.293 | 0.193 | 0.293 | 0.614 | 0.565 | 0.936 | 0.173 | 0.882 | 0.16 | 0.895 | -0.04 | -0.0401 | 0.0311 | -0.0459
7 | COc1cccc(OCCCN)c1-c1cc(Nc2cnc(C#N)cn2)n[nH]1 [Prexasertib] + CCc1c2c(nc3ccc(O)cc13)-c1cc3c(c(=O)n1C2)COC(=O)[C@]3(O)CC [SN-38] (first compound max 1 µM, 7x7, partner max 0.3 µM) | 1 | 0.662 | 0.853 | 0.819 | 1 | 0.991 | 0.705 | 0.901 | 1 | 0.814 | 0.847 | 0.857 | 0.881 | 0.896 | 0.684 | 0.676 | 0.0036 | -0.0622 | -0.0554 | -0.0831
8 | Cc1c2c(nn1C)CSCc1cc(n(C)n1)CSc1cc(c3ccccc3c1)OCCCc1c(C(=O)O)n(C)c3c-2c(Cl)ccc13 [AZD5991] + C[C@@H](Nc1cc(F)cc(F)c1)c1cc(C(=O)N(C)C)cc2c(=O)cc(N3CCOCC3)oc12 [AZD8186] (first compound max 1 µM, 7x7, partner max 3 µM) | 0.297 | 0.17 | 0.424 | 0.279 | 1 | 1 | 0.363 | 0.336 | 0.89 | 0.268 | 0.732 | 0.203 | 0.377 | 0.305 | 0.332 | 0.996 | -0.0758 | -0.0135 | -0.0005 | 0.0203
9 | Cc1c2c(nn1C)CSCc1cc(n(C)n1)CSc1cc(c3ccccc3c1)OCCCc1c(C(=O)O)n(C)c3c-2c(Cl)ccc13 [AZD5991] + Cc1cc2ncnn2cc1Nc1ncc2c(n1)n(C1CCOCC1)c(=O)n2C [AZD7648] (first compound max 1 µM, 7x7, partner max 10 µM) | 0.297 | 0.144 | 0.483 | 0.466 | 1 | 1 | 0.422 | 0.365 | 0.854 | 0.391 | 0.573 | 0.207 | 0.517 | 0.283 | 0.284 | 0.996 | -0.0341 | -0.0345 | -0.0204 | -0.0079
10 | C=CCn1c(=O)c2cnc(Nc3ccc(N4CCN(C)CC4)cc3)nc2n1-c1cccc(C(C)(C)O)n1 [AZD1775] + C[C@@H]1COCCN1C2=NC(=NC(=C2)C3(CC3)[S@](=N)(=O)C)C4=C5C=CNC5=NC=C4 [AZD6738] (first compound max 1 µM, partner max 10 µM) | 0.941 | 0.129 | 0.755 | 0.882 | 0.98 | 0.922 | 0.764 | 0.936 | 0.966 | 0.937 | 0.875 | 0.504 | 0.805 | 0.849 | 0.56 | 0.772 | -0.0194 | -0.0464 | -0.0165 | -0.0746
11 | COc1cccc(OCCCN)c1-c1cc(Nc2cnc(C#N)cn2)n[nH]1 [Prexasertib] + O=C(c1cc(Cc2n[nH]c(=O)c3ccccc23)ccc1F)N1CCN(C(=O)C2CC2)CC1 [Olaparib] (first compound max 1 µM, 7x7, partner max 10 µM) | 0.971 | 0.281 | 0.713 | 0.79 | 0.974 | 0.653 | 0.652 | 0.86 | 0.797 | 0.854 | 0.798 | 0.284 | 0.654 | 0.696 | 0.611 | 0.626 | -0.058 | -0.0667 | -0.0352 | -0.099
12 | CN(C)CCCOc1ccc(-c2ccc3ncc4c(c3c2)n(C2CCOCC2)c(=O)n4C)cn1 [AZD0156] + CCN(CCO)CCCOc1ccc2c(Nc3cc(CC(=O)Nc4cccc(F)c4)[nH]n3)ncnc2c1 [AZD2811] (first compound max 1 µM, 7x7, partner max 1 µM) | 0.312 | 0.069 | 0.138 | 0.366 | 0.563 | 0.478 | 0.195 | 0.196 | 0.205 | 0.373 | 0.435 | 0.665 | 0.071 | 0.673 | 0.247 | 0.178 | -0.0587 | 0.002 | 0.0312 | -0.0328
13 | COc1cccc(OCCCN)c1-c1cc(Nc2cnc(C#N)cn2)n[nH]1 [Prexasertib] + Cc1cc2ncnn2cc1Nc1ncc2c(n1)n(C1CCOCC1)c(=O)n2C [AZD7648] (first compound max 1 µM, 7x7, partner max 10 µM) | 0.946 | 0.398 | 0.842 | 0.821 | 0.984 | 0.629 | 0.693 | 0.916 | 0.95 | 0.948 | 0.879 | 0.333 | 0.597 | 0.583 | 0.709 | 0.583 | 0.0467 | -0.0352 | -0.0261 | -0.0545
